Experiment [1] relates to rat peritoneal mast cells. The experiment can be described thus: Inhibition of compound 48/80-induced histamine release from rat peritoneal mast cells. Type of experiment: cell-based. Particulars: Mast cell. As to the method: The %inhibition of hesperetin 3′-β-glucoside (9) and hesperetin 7-β-glucoside (10) was higher than that of hesperetin (8). […] The inhibitory activity toward histamine release of hesperetin 7-β-gentiobioside (12) was stronger than hesperetin diglucoside 11. The anti-allergic activities were examined at pH 7.4 and 37 °C according to the reported methods. The pH and temperature of the reaction mixture may have an effect on anti-allergic activities. Effects of pH and temperature on anti-allergic activities of the obtained glycosides should be investigated and reported on in the near future.
The effects of daidzein, α-tocopherol, hesperetin, and their glycosides on compound 48/80-induced histamine release from rat peritoneal mast cells were examined as follows. Peritoneal mast cells were collected from the abdominal cavities of rats (Male Wistar rats, Nippon SLC) and purified to a level higher than 95%. The purified mast cells were suspended in a physiological buffered solution (PBS) containing 145 mM NaCl, 2.7 mM KCl, 1.0 mM CaCl2, 5.6 mM glucose, and 20 mM 4-(2-hydroxyethyl)-1-piperazineethanesulfonic acid (HEPES) (pH 7.4) to give approximately 10^4 mast cells/mL. Cell viability was always greater than 90% as judged by the trypan blue exclusion test. Mast cells were preincubated with the test compound (1 μM) for 15 min at 37 °C, and subsequently exposed to compound 48/80 at 0.35 μg/mL. Histamine release was determined by a fluorometric assay, and was expressed as a percentage of total histamine.

For experiment [2], the target named is Mushroom tyrosinase (EC 1.14.18.1). The experiment can be described thus: Tyrosinase assay (dopachrome formation at 475 nm). Type of experiment: biochemical. Particulars: L-DOPA or L-tyrosine as substrate, pH 6.8, 30 °C, mean ± standard deviation from triplicate experiments, read-out: Tyrosinase Inhibitory Activity IC50. As to the method:
Mushroom tyrosinase (EC 1.14.18.1) (Sigma-Aldrich Chemical Co., St. Louis, MO, USA) was used for the tyrosinase assay, with either L-DOPA or L-tyrosine as a substrate. In spectrophotometric experiments, enzyme activity was taken as the initial velocity (Vi) monitored by observing dopachrome formation at 475 nm with a UV spectrophotometer at 30 °C. All samples were dissolved in ethanol at 10 mM. First, 200 μL of a 2.7 mM L-tyrosine or 5.4 mM L-DOPA aqueous solution was mixed with 2687 μL of 0.25 M phosphate buffer (pH 6.8). Next, 100 μL of the sample solution and 13 μL of the same phosphate buffer solution containing mushroom tyrosinase (144 units) were added to the mixture.

Where [3] appears, read: test compound 1 μM, preincubated 15 min at 37 °C, pH 7.4, compound 48/80 at 0.35 μg/mL, Male Wistar rat peritoneal mast cells, read-out: Histamine Release-Inhibiting Activity / %inhibition.
Where [4] appears, read: Rattus norvegicus, pH 7.4, read-out: Histamine Release-Inhibiting Activity / %inhibition.

Read-outs that look alike come from different tables or passages of the source.

Inhibition and IC50 data for 13 compounds are collected here from PMC6721765, “Synthesis of Daidzein Glycosides, α-Tocopherol Glycosides, Hesperetin Glycosides by Bioconversion and Their Potential for Anti-Allergic Functional-Foods and Cosmetics” (Molecules, 2019).

As for `O=c1c(-c2ccc(O)cc2)coc2cc(O)ccc12` [Compound 1, daidzein], in experiment [1] (setting [3]), the inhibition at 1 µM came out at 58%. The IC50 in experiment [2] was determined as 392 ± 88 µM.
For the compound `O=c1c(-c2ccc(O)cc2)coc2cc(OC3OC(CO)C(O)C(O)C3O)ccc12` (stereo not drawn) [Compound 2, daidzein 7-β-glucoside], the inhibition at 1 µM in experiment [1] (setting [4]) was found to be 62%. Also, in experiment [2], the IC50 was determined as 303 ± 45 µM.
As for `O=c1c(-c2ccc(O)cc2)coc2cc(OC3OC(COC4OC(CO)C(O)C(O)C4O)C(O)C(O)C3O)ccc12` (stereo not drawn) [Compound 3, daidzein 7-β-gentiobioside], the inhibition at 1 µM in experiment [1] (setting [3]) came to 67%. For the same compound, in experiment [2], the IC50 was 280 ± 33 µM.
On to `O=c1c(-c2ccc(O[C@@H]3O[C@H](CO)[C@H](O)[C@H](O)[C@H]3O)cc2)coc2cc(O)ccc12` [Compound 4, daidzein 4′-β-galactoside], for which, in experiment [1] (setting [3]), the inhibition at 1 µM turned out to be 70%. For the same compound, the IC50 in experiment [2] turned out to be 125 ± 41 µM.
For the compound `O=c1c(-c2ccc(O)cc2)coc2cc(O[C@@H]3O[C@H](CO)[C@H](O)[C@H](O)[C@H]3O)ccc12` [Compound 5, daidzein 7-β-galactoside], in experiment [1] (setting [4]), the inhibition at 1 µM is 76%. Besides, in experiment [2], the IC50 is 102 ± 39 µM.
As to `Cc1c(C)c2c(c(C)c1O)CC[C@@](C)(CCC[C@H](C)CCC[C@H](C)CCCC(C)C)O2` [Compound 6, α-tocopherol], the inhibition at 1 µM in experiment [1] (setting [3]) is 61%. In addition, the IC50 in experiment [2] is 510 ± 108 µM.
`Cc1c(C)c2c(c(C)c1O[C@@H]1O[C@H](CO)[C@H](O)[C@H](O)[C@H]1O)CC[C@@](C)(CCC[C@H](C)CCC[C@H](C)CCCC(C)C)O2` [Compound 7, α-tocopherol 6-β-galactoside]: the inhibition at 1 µM in experiment [1] (setting [3]) turned out to be 82%. Moreover, the IC50 in experiment [2] came out at 54 ± 25 µM.
`COc1ccc([C@@H]2CC(=O)c3c(O)cc(O)cc3O2)cc1O` [Compound 8, hesperetin]: the inhibition at 1 µM in experiment [1] (setting [3]) came out at 38%. Also, the IC50 in experiment [2] worked out at 437 ± 76 µM.
In the same order, the values of `COc1ccc(C2CC(=O)c3c(O)cc(O)cc3O2)cc1OC1OC(CO)C(O)C(O)C1O` (stereo not drawn) [Compound 9, hesperetin 3′-β-glucoside] are 40% and 355 ± 32 µM.
In the same order, the values of `COc1ccc(C2CC(=O)c3c(O)cc(OC4OC(CO)C(O)C(O)C4O)cc3O2)cc1O` (stereo not drawn) [Compound 10, hesperetin 7-β-glucoside] are 45% and 318 ± 27 µM.
In the same order, the values of `COc1ccc(C2CC(=O)c3c(O)cc(OC4OC(CO)C(O)C(O)C4O)cc3O2)cc1OC1OC(CO)C(O)C(O)C1O` (stereo not drawn) [Compound 11, hesperetin 3′,7-β-diglucoside] are 63% and 176 ± 35 µM.
On to `COc1ccc(C2CC(=O)c3c(O)cc(OC4OC(COC5OC(CO)C(O)C(O)C5O)C(O)C(O)C4O)cc3O2)cc1O` (stereo not drawn) [Compound 12, hesperetin 7-β-gentiobioside], for which, in experiment [1] (setting [3]), the inhibition at 1 µM was 69%. Moreover, the IC50 in experiment [2] came to 139 ± 14 µM.
Regarding `O=c1c(O)c(-c2ccc(O)cc2)oc2cc(O)cc(O)c12` [Kaempferol, reference compound], the inhibition at 1 µM in experiment [1] (setting [3]) amounted to 80%.
